PMC8426299, “Effect of severe renal impairment on the pharmacokinetics of brigatinib” (Investigational New Drugs, 2021)
Entries after “also recorded” stand apart in the source; their conditions may differ. Where two headings read alike, the source gives them in different places.

Experiments:
[1] = Open-label single-dose (brigatinib 90 mg oral, fasting) plasma pharmacokinetic study, severe renal impairment vs matched healthy volunteers; type: in vivo, human; set-up: Cmax,u LS Mean (SE): unit not given beside the values; conditions: for half-life / Cmax: human, plasma, 90 mg; for half-life: oral, after a single dose, read-out: mean t1/2 (converted); for Cmax: po, read-out: total brigatinib Cmax, geometric mean (CV%); for Cmax / Tmax, median (range): single oral 90 mg; for V/F,u, geometric mean (geometric % CV): unbound apparent volume of distribution; for Cmax,u, Range / Cmax,u, geometric mean (geometric % CV): unbound
Experimental: This was an open-label, parallel-group study that enrolled patients with severe renal impairment and matched healthy volunteers with normal renal function. The study consisted of a 28-day screening period and a single nine-day inpatient treatment period (day − 1 to day 8). On the morning of day 1, each participant received a single oral dose of brigatinib 90 mg under fasting conditions.Participants were required to abstain from food for approximately 10 h prior to study drug administration and for approximately four hours postdose, with the exception of the standardized snack. Due to the high prevalence of diabetes in patients with severe renal impairment, the standardized snack (not high fat or high calorie) was given to all participants at 2.5 h postdose. Water was permitted ad libitum except for one hour prior to dosing and for approximately one hour postdose. Participants underwent end-of-study procedures and were discharged from the clinical site on day 8.
Healthy volunteers with normal renal function (eGFR ≥ 90 mL/min/1.73 m^2) were matched to patients with severe renal impairment by age (± 10 years), sex, body mass index (BMI; ±15 % at screening), and if possible, smoking habits. Patients with severe renal impairment were defined as those with an eGFR < 30 mL/min/1.73 m^2. eGFR was calculated using the Modification of Diet in Renal Disease equation (MDRD). Estimated creatinine clearance was based on the Cockcroft-Gault equation.
(§1) Blood samples were collected before brigatinib administration (predose) and at 0.5, 1, 1.5, 2, 2.5, 3, 4, 6, 8, 12, 24, 36, 48, 60, 72, 96, 120, 144, and 168 h after brigatinib administration to determine plasma brigatinib concentrations. Urine was collected predose and during intervals (0–8, 8–12, 12–24, 24–48, 48–72, 72–96, 96–120, and 120–168 h) after brigatinib administration to determine urine brigatinib concentrations. Urine samples were subsequently diluted 50:50 (v:v) urine:isopropanol at the clinical site.
(§2) Plasma and urine samples were analyzed by Charles River Laboratories, Inc. (Worcester, MA, USA) by LC-MS/MS, as previously reported. Plasma samples were analyzed using a dual-range assay with a lower limit of quantitation of 0.100 ng/mL and an upper limit of 2500 ng/mL [11]. Urine samples were analyzed using a single-range assay with a lower limit of quantitation of 25.0 ng/mL and upper limit of 2500 ng/mL [11].
(§3) Individual participant plasma concentration-time profiles were analyzed via noncompartmental analysis methods using Phoenix WinNonlin (version 6.4) to estimate PK parameters. Plasma PK parameters calculated for brigatinib included maximum observed plasma concentration (Cmax); Tmax; area under the plasma concentration-time curve from time zero to the time of the last measurable concentration (AUC0 − last); AUC from time zero to infinity (AUC0−∞); terminal elimination half-life (t1/2); apparent oral clearance (CL/F); and apparent volume of distribution (V/F). The fraction of unbound brigatinib in plasma was determined using the following formula: % free (unbound) = [free brigatinib concentration measured in buffer after RED]/[total concentration measured in plasma] X 100. Unbound brigatinib plasma PK parameters (except unbound CL/F and V/F, which were calculated as total CL/F or total V/F divided by the overall mean fraction unbound) were calculated using the following formula: unbound PK parameter = (parameter based on total concentrations) x (individual participant’s overall mean fraction unbound value). Urinary PK parameters included the amount of brigatinib excreted from time zero to time t (Ae0 − t,), fraction of the dose excreted (%) from time zero to time t (Fe0 − t), and renal clearance (CLR).
Descriptive statistics, including number of observations (n), arithmetic mean, standard deviation (SD), coefficient of variation (CV%), median, minimum, and maximum, were calculated for each time point for brigatinib plasma concentrations in each study group. […]

[2] = Urinary pharmacokinetics after single oral dose of brigatinib 90 mg; type: in vivo, human; conditions: for CL renal: human, oral, 90 mg; for CL renal / Ae0–168, Range / Ae0–168, amount of brigatinib excreted from time zero to 168 hours, mean (SD) / Fe0–168, Range: urine
Experimental: as §1, §2, §3

ALK + NSCLC = system: ALK + NSCLC; set-up: method as in PMID 32780660; conditions: cited from earlier work
[3] = cited from earlier work
[4] = system: cytochrome P450 (CYP) 3A4; set-up: method as in ref 5, 11 = [5]; 5. Alunbrig brigatinib [summary of product characteristics] (2020) Takeda Pharmaceutical Company Limited. https://www.alunbrig.com/assets/pi.pdf . Accessed 9 Mar 2021 || [11]; PMID 31287236; doi:10.1002/cpdd.723; 11. Tugnait M Gupta N Hanley MJ Sonnichsen D Kerstein D Dorer DJ Venkatakrishnan K Narasimhan N Effects of strong CYP2C8 or CYP3A inhibition and CYP3A induction on the pharmacokinetics of brigatinib; conditions: in vitro; cited from earlier work
[5] = set-up: method as in ref 11 = [11]; PMID 31287236; doi:10.1002/cpdd.723; 11. Tugnait M Gupta N Hanley MJ Sonnichsen D Kerstein D Dorer DJ Venkatakrishnan K Narasimhan N Effects of strong CYP2C8 or CYP3A inhibition and CYP3A induction on the pharmacokinetics of brigatinib; conditions: cited from earlier work
[6] = Severe Renal Impairment (n = 8)
[7] = healthy volunteers with normal renal function
[8] = patients with severe renal impairment
[9] = severe renal impairment compared with normal renal function
[10] = brigatinib vs crizotinib, P < 0.0001

SMILES: COc1cc(N2CCC(N3CCN(C)CC3)CC2)ccc1Nc1ncc(Cl)c(Nc2ccccc2P(C)(C)=O)n1 [brigatinib]
- V/F,u, Range ([1]; Normal Renal Function (n = 8)): 5898–13,744 L
- V/F,u, Range [1, 6]: 3556 to 8914 L
- Cmax,u LS Mean (SE) ([1]; Severe renal impairment vs. Normal renal function): 0.130 (0.1330)
- half-life [1, 7]: ~42 h
- half-life [1, 8]: ~54 h
- Cmax [1, 7]: 362 ng/mL
- Cmax [1, 8]: 471 ng/mL
- Tmax, median (range) ([1]; normal renal function group): 2.0 (1.0–4.0) hours
- total brigatinib AUC0 − last, percent higher [1, 9]: more than 100%
- total brigatinib AUC0−∞, percent higher [1, 9]: more than 100%
- Tmax, median (range) ([1]; severe renal impairment group): 2.5 (1.0–3.0) hours
- unbound brigatinib AUC0 − last, percent higher ([1]; severe renal impairment versus normal renal function): 77%
- V/F,u, geometric mean (geometric % CV) ([1]; Normal Renal Function (n = 8)): 8327 (30.4) L
- V/F,u, geometric mean (geometric % CV) [1, 6]: 5532 (31.4) L
- Cmax,u, Range ([1]; Normal Renal Function (n = 8)): 23.9 to 45.3 ng/mL
- Cmax,u, geometric mean (geometric % CV) ([1]; Normal Renal Function (n = 8)): 32.29 (25.1) ng/mL
- Cmax,u, Range [1, 6]: 25.2 to 55.6 ng/mL
- Cmax,u, geometric mean (geometric % CV) [1, 6]: 36.76 (29.0) ng/mL
- CL renal ([2]; Normal Renal Function (n=8), read-out: CLR, Range): 27.5 to 63.7 mL/min
- CL renal ([2]; Normal Renal Function (n=8), read-out: CLR, renal clearance, mean (SD)): 41.5 mL/min
- CL renal ([2]; Severe Renal Impairment (n=8), read-out: CLR, Range): 5.4 to 13.4 mL/min
- CL renal ([2]; Severe Renal Impairment (n=8), read-out: CLR, renal clearance, mean (SD)): 9.17 mL/min
- renal clearance as share of overall clearance of brigatinib ([2]; in vivo): approximately 25%
- renal clearance of unbound brigatinib, fold lower [2, 9]: approximately five-fold
- reduction of fraction of dose excreted in urine 0 to 168 h ([2]; severe renal impairment vs normal renal function): approximately 50%
- nonrenal clearance, percent lower ([2]; severe renal impairment vs normal renal function, derived from renal clearance share): approximately 50%
- Ae0–168, Range ([2]; Normal Renal Function (n=8)): 11.58 to 21.77 mg
- Ae0–168, amount of brigatinib excreted from time zero to 168 hours, mean (SD) ([2]; Normal Renal Function (n=8)): 16.90 (3.57) mg
- Fe0–168, Range ([2]; Normal Renal Function (n=8)): 12.9–24.2%
- Ae0–168, Range ([2]; Severe Renal Impairment (n=7)): 3.92 to 14.36 mg
- Ae0–168, amount of brigatinib excreted from time zero to 168 hours, mean (SD) ([2]; Severe Renal Impairment (n=7)): 7.58 (3.77) mg
- Fe0–168, Range ([2]; Severe Renal Impairment (n=7)): 4.36–16.0%
- 24-month PFS, blinded independent review committee-assessed (ALK + NSCLC; ALK inhibitor-naive patients): 48%
- 24-month PFS, investigator-assessed (ALK + NSCLC; ALK inhibitor-naive patients): 56%
- PFS hazard ratio [95 % CI], blinded independent review committee-assessed (ALK + NSCLC; [10]): 0.49
- PFS hazard ratio [95 % CI], investigator-assessed (ALK + NSCLC; [10]): 0.43 [0.31–0.61]
- dose proportionality / linearity of systemic exposure [3]: dose proportional over the dose range of 60 mg to 240 mg qd; also recorded: dose-linear and time-independent PK
- geometric mean accumulation ratio after repeat dosing [3]: 1.9 to 2.4
- oral dose excreted unchanged in the urine [3]: approximately 25%
- median time to reach maximum plasma concentration (Tmax) ([3]; postdose): 1 to 3 h
- contribution of CYP3A4 to metabolism [4]: primarily metabolized
- decrease of systemic exposure (AUC) ([5]; coadministration of strong CYP3A inducers): 80%
- increase of systemic exposure (AUC) ([5]; coadministration of strong CYP3A inhibitors): 101%
- effect on systemic exposure (AUC) ([5]; coadministration with a strong inhibitor of CYP2C8): did not meaningfully affect
